Results: patent US10052310B2, “Separase inhibitors and uses thereof” (Baylor College of Medicine, priority 2013, dated 2018)
Entries after “also recorded” stand apart in the source; their conditions may differ. Where two headings read alike, the source gives them in different places.

What was measured:
Separase = molecular target: T1, Separase (Homo sapiens, UniProt Q14674); assay: Fluorogenic Separase activity assay using (Rad21)2-Rh110 as substrate; assay type: biochemical; details: for IC50: (Rad21)2-Rh110 substrate
T1 construct: made in house; host or cells: 293T cells; released from IgG-Agarose by TEV protease
Method: The substrate used in this Example is (Rad21)2-Rh110, which has two Rad21 peptide molecules (Asp-Arg-Glu-Ile-Nle-Arg) conjugated to one molecule of Rhodamine 110 (Rh110) (CPC Scientific, Sunnyvale Calif.). The assay was set up using 384-well low volume black polystyrene plates (Corning, N.Y.). Fifteen micro liter of activated Separase (˜5 ng) was mixed with 5 μl of test compound. The cleavage buffer (CB) used to dilute reagents was (30 mM Hepes-KOH pH7.7, 50 mM NaCl, 25 mM NaF, 25 mM KCl, 5 mM MgCl2, 1.5 mM ATP, and 1 mM EGTA). The mixture was incubated at room temperature for 1 h, and then 5 μl of 0.2 mM substrate (Rad21)2-Rh110 was added. The positive control contained Separase, substrate and CB without the test compound. The negative control contained substrate and CB only. After the reaction mixture was incubated at 37° C. for 3 h, the relative fluorescence intensity was measured (without stopping the enzymatic activity) at λex=390 nm/λem=450 nm for […] (AMC) released from Rad21-MCA or λex=490 nm/λem=528 nm for Rh110 released from (Rad21)2-Rh110 using a Synergy™ 4 Multi-Mode Microplate Reader (BioTek Instruments Inc., Winooski, Vt.).
Different amounts of Sepin-1 were mixed with activated Separase for 30 min before substrate (Rad21)2-Rh110 was added. After 3 h incubation at 37° C., the fluorescence intensity of Rh110 was determined. IC50 was calculated using either KaleidaGraph program (Synerge software, Reading, Pa.) or four parameter logistic equation (4-parameter dose-response curve fit): Inhibition of Activity (%)=min+(max−min)/{1+(log [M]/IC50)}^Hill Slop, where “min” and “max” represent minimal and maximal activity inhibition, respectively. Hill Slop is the slope of the curve at its midpoint. To identify the mode of Sepin-1 interacting with Separase, different amounts of both Sepin-1 and (Rad21)2-Rh110 were used in the Separase activity assay.

[1] = test system: MC1 triple-negative breast tumor xenograft; assay: Growth inhibition of patient-derived xenograft MC1; assay type: in vivo, SCID-beige mice; details: 10 mg/kg intraperitoneal injection, three week treatment
Text: (§1) Patient-derived xenograft (PDX) lines MC1 (ER− PR− HER2−) (Proc Natl Acad Sci USA. 100, 2003, 3983-3988) and BCM-5471 (ER− PR− HER2−) (Cancer Res. 73, 2013, 4885-4897) were maintained as described (Cancer Res. 73, 2013, 4885-4897) by serial transplantation into SCID Beige immunocompromised host mice whose endogenous mammary epithelium was removed surgically (Cancer Res. 19, 1959, 515-20).
(§2) For treatment studies, MCF7 xenografts (ER+ PR+ HER2−) were generated by injection of one million cultured cells grown under standard in vitro conditions as previously described (Proc. Natl. Acad. Sci. U. S. A 105, 2008, 13033-13038). Donor tumors for PDX lines MC1 and BCM-5471 were divided into small fragments and retransplanted into the fat pat of recipient SCID Beige mice (5 mice per group). When the tumors reached approximately ˜200 mg, mice were treated with either vehicle or Sepin-1. Sepin-1 was injected at dose of 10 mg/kg daily for 5 days a week for 3 weeks. […] Vehicle injected mice served as controls. Size of the xenografts were measured every four days using calipers and tumor weight was estimated using the guidelines by NCI for xenograft evaluation (http://ncifrederick.cancer.gov/Lasp/Acuc/Frederick/Media/Documents/ACUC14.pdf). After 3 weeks treatment, the tumors were harvested and fixed in 10% Buffed Formalin Phosphate (Fisher Scientific, Pittsburgh, Pa.) overnight. […]

[2] = test system: BCM-5471 triple-negative breast tumor xenograft; assay: Growth inhibition of patient-derived xenograft BCM-5471; assay type: in vivo, SCID-beige mice; details: 10 mg/kg intraperitoneal injection, three week treatment
Text: as §1, §2

T1 sequence (Q14674 whole entry): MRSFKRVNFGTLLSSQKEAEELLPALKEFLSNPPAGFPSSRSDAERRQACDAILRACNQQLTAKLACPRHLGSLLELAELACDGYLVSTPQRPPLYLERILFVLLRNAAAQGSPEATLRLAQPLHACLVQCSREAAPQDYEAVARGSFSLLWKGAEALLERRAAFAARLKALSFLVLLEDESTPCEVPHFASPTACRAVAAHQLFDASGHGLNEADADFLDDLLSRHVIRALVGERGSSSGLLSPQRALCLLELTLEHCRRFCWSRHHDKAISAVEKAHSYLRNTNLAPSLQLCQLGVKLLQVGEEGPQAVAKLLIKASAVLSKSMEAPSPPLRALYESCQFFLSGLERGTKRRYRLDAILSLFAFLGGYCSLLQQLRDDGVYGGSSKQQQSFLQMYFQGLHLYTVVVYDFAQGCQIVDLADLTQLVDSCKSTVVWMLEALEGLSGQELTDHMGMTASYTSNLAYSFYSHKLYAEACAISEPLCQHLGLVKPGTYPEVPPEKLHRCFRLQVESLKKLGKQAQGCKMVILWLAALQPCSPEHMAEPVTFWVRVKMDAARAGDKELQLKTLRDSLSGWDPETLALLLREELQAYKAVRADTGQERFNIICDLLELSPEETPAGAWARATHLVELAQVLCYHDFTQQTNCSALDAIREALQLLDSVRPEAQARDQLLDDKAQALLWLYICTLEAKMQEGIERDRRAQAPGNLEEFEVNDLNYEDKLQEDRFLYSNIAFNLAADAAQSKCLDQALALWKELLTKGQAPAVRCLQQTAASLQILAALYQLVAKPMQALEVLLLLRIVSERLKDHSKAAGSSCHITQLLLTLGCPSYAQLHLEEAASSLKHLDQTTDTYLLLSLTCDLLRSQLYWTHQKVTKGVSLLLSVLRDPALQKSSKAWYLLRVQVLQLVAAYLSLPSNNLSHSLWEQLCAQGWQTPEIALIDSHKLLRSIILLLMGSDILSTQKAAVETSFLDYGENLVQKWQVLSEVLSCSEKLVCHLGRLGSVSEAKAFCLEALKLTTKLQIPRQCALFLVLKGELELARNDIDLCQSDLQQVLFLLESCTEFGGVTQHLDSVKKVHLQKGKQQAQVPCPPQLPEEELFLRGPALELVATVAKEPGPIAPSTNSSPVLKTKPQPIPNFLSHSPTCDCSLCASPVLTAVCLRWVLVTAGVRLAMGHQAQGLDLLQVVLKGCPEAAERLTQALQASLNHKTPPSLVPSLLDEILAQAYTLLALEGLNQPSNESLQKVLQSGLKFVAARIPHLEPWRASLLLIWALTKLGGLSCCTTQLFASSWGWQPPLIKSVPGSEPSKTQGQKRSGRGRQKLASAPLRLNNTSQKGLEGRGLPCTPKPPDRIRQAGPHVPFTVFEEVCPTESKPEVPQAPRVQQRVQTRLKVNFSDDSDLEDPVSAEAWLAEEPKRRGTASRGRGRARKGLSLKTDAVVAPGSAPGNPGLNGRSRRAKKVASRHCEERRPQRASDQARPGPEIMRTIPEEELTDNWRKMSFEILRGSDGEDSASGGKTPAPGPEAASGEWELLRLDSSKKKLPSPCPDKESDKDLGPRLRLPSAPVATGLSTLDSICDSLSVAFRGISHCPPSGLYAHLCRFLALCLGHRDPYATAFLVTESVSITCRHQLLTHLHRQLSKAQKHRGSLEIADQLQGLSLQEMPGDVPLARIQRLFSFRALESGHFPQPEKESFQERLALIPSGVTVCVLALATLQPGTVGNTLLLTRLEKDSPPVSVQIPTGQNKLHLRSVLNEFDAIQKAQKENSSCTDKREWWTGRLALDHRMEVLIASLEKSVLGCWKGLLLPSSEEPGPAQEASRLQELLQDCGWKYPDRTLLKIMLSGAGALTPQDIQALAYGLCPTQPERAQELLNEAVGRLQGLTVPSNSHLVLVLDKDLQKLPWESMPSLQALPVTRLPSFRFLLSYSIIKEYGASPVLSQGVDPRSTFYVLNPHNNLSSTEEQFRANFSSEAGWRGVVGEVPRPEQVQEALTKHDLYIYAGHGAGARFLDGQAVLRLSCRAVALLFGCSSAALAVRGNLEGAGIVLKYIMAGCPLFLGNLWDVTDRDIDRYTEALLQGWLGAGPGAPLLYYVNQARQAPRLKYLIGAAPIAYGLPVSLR

Compound: CC1(C)[N+]([O-])=c2ccc([N+](=O)[O-])cc2=[N+]1[O-] [Sepin-1, 2,2-dimethyl-5-nitro-2H-benzimidazole-1,3 dioxide]
- effect of 0.1% Tween-20 or 1% BSA on inhibition kinetics (Separase; 0.1% Tween-20 or 1% BSA in the reaction mixture): did not affect the kinetics of Sepin-1 in inhibiting Separase activity
- IC50 (Separase; calculated using KaleidaGraph, read-out: IC50 of Separase activity inhibition): 14.8 µM
- IC50 (Separase; four-parameter fit, n=3, read-out: estimated IC50, four-parameter dose-response curve fit): 15.8 µM
- dose dependence of Separase activity inhibition (Separase; FIG. 9B): dose-dependent inhibition of Separase activity
- mode of inhibition (effect on Km and Vmax) (Separase; Lineweaver-Burk plot, Sepin-1 mixed with Separase 30 min before substrate): did not affect the Km but reduced the Vmax; also recorded: reduced the speed (Vmax) of substrate conversion by Separase, but not the Km
- verified activity in inhibiting Separase enzymatic activity (Separase; re-test of HTS hits): highest activity
- inhibition of growth of xenograft MC1 tumors versus vehicle [1]: 70%
- growth of xenograft BCM-5471 versus vehicle [2]: no significant difference in growth; also recorded: more sensitive to Sepin-1 than MC-1 tumors
